The text below walks through data of patent publication US9040525B2, “Cyclic amide derivative” (MOCHIDA PHARMACEUTICAL CO., LTD., priority 2010, dated 2015).

Structures can show the parent of a compound that is named as a salt.

T1 sequence (O14842 whole entry): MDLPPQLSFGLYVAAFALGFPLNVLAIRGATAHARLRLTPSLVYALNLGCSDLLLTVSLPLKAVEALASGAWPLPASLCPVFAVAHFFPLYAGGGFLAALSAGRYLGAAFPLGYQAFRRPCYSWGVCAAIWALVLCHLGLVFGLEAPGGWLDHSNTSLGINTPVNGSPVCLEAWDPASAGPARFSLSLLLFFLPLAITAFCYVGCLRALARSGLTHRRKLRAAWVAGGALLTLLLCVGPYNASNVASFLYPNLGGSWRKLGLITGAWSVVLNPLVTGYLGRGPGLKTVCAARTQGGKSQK

The assay has as its target T1, GPR40 of human origin (Homo sapiens, UniProt O14842).
T1 construct: expressed in transfected cells
In words: Agonist action on GPR40 of human origin (Ca2+ fluorescence, CHO cell strain stably expressing GPR40). In kind it is cell-based. To be noted: fluctuation of Ca2+ concentration. On the procedure:
A CHO cell strain stably expressing GPR40 of human origin was used to determine the agonist action of a title compound. This cell strain was seeded in a clear bottom 96 well plate at 2×10^4 cells/100 μL/well. The cell strain was cultured in a CO2 incubator overnight using a Ham's F-12 medium containing a 10% fetal bovine serum, 100 U/mL penicillin, 0.1 mg/mL streptomycin, and 400 μg/mL. Geneticin. Calcium 4 Assay Kit (Molecular Devices) was used as a fluorescent calcium indicator. One mL of 77 mg/mL probenecid (Invitrogen) was added to 100 mL of a calcium indicator solution to prepare a solution (loading solution) mixed with a 20 mM HEPES-containing Hanks' balanced salt solution (HBSS) in equal proportions. To the cells from which the culture solution was removed, 200 μL of the loading solution was added, and the cells were cultured in a CO2 incubator for 1 hour. The title compound was diluted with a 20 mM HEPES-containing HBSS and was added to the cells by 50 μL, and the fluctuation of the Ca^2+concentration was measured by an intracellular ion analyzer. The EC50 value of the title compound was calculated using the dose-response curve of fluorescence intensity variation.
For `CCOCCOc1cc(C)c(-c2cccc(COc3ccc(C4CC(=O)N[S+]4[O-])cc3)c2)c(C)c1` (mixture of isomers) [Example 1, 5-[4-[[3-[4-(2-ethoxyethoxy)-2,6-dimethylphenyl]phenyl]methoxy]phenyl]-1-oxo-1,2-thi azolidin-3-one], the EC50 (in general, the concentration that produces a half-maximal response) was less than 300 nM.

`Cc1cc(OCC[C@@H](C)O)cc(C)c1-c1cccc(COc2ccc(C3CC(=O)N[S+]3[O-])cc2)c1` (mixture of isomers) [Example 12, 5-[4-[[3-[4-[(3R)-3-hydroxybutoxy]-2,6-dimethylphenyl]phenyl]methoxy]phenyl]-1-oxo-1,2-thiazolidin-3-one] gave a concentration for a half-maximal effect (EC50) of less than 300 nM.

In turn, `Cc1cc(OCCCS(C)(=O)=O)cc(C)c1-c1cccc(COc2ccc(C3CC(=O)NS3(=O)=O)cc2)c1` (racemic) [Example 19, 5-[4-[[3-[2,6-dimethyl 4-(3-methylsulfonylpropoxy)phenyl]phenyl]methoxy]phenyl]-1,1-dioxo-1,2-thiazolidin-3-one] gave a half-maximal effective concentration (EC50) of less than 300 nM.

Regarding `Cc1cc(OCCC(C)(C)O)nc(C)c1-c1cccc(COc2ccc(C3CC(=O)NS3(=O)=O)cc2)c1` (racemic) [Example 20, 5-[4-[[3-[6-(3-hydroxy-3-methylbutoxy)-2,4-dimethylpyridin-3-yl]phenyl]methoxy]phenyl]-1,1-dioxo-1,2-thiazolidin-3-one], the concentration for a half-maximal effect (EC50) was 300 to 3000 nM.

For the molecule `Cc1cccc(C)c1-c1cccc(COc2ccc(C3CC(=O)NS(=O)(=O)N3)cc2)c1` (racemic) [Example 21, 5-[4-[[3-(2,6-dimethylphenyl)phenyl]methoxy]phenyl]-1,1-dioxo-1,2,6-thiadiazinan-3-one], the EC50 was less than 300 nM.

With `Cc1cccc(C)c1-c1cccc(COc2ccc(C3CC(=O)NS(=O)(=O)C3)cc2)c1` (racemic) [Example 22, 5-[4-[[3-(2,6-dimethylphenyl)phenyl]methoxy]phenyl]-1,1-dioxo-1,2-thiazinan-3-one], the EC50 is less than 300 nM.

Turning to `Cc1nc(OCCC(C)(C)O)ccc1-c1cccc2c1CC[C@H]2Oc1ccc(C2CC(=O)N[S+]2[O-])cc1` (single isomer, unassigned) [23(A)-b], the half-maximal effective concentration (EC50) is 300 to 3000 nM.

As for `Cc1cc(OCCC(C)(C)O)cc(C)c1-c1cccc2c1CC[C@H]2Oc1ccc(C2CC(=O)N[S+]2[O-])cc1` (single isomer, unassigned) [24(A)-a], the concentration for a half-maximal effect (EC50) was less than 300 nM.

In turn, `CCOCCOc1cc(C)c(-c2cccc(COc3ccc(C4CC(=O)N[S+]4[O-])cc3)c2)c(C)c1F` (stereo not drawn) [Example 2, 5-[4-[[3-[4-(2-ethoxyethoxy)-3-fluoro-2,6-dimethylphenyl]phenyl]methoxy]phenyl]-1-oxo-1,2-thiazolidin-3-one] yielded an EC50 of less than 300 nM.

On to `Cc1cc(OCCC(C)(C)O)c(F)c(C)c1-c1cccc(COc2ccc(C3CC(=O)N[S+]3[O-])cc2)c1` (stereo not drawn) [Example 3, 5-[4-[[3-[3-fluoro-4-(3-hydroxy-3-methylbutoxy)-2,6-dimethylphenyl]phenyl]methoxy]phenyl]-1-oxo-1,2-thiazolidin-3-one], for which the 50% effective concentration (EC50) was less than 300 nM.

`Cc1cc(OCCC(C)(C)O)cc(C)c1-c1cccc(COc2ccc(C3CC(=O)N[S+]3[O-])cc2)c1` (stereo not drawn) [Example 4, 5-[4-[[3-[4-(3-hydroxy-3-methylbutoxy)-2,6-dimethylphenyl]phenyl]methoxy]phenyl]-1-oxo-1,2-thiazolidin-3-one]: the concentration for a half-maximal effect (EC50) is less than 300 nM.

`Cc1cc(OCCCS(C)(=O)=O)nc(C)c1-c1cccc(COc2ccc(C3CC(=O)N[S+]3[O-])cc2)c1` (stereo not drawn) [Example 5, 5-[4-[[3-[2,4-dimethyl-6-(3-methylsulfonylpropoxy)pyridin-3-yl]phenyl]methoxy]phenyl]-1-oxo-1,2-thiazolidin-3-one] displayed a 50% effective concentration (EC50) of less than 300 nM.

With `Cc1cc(OCCC(C)(C)O)nc(C)c1-c1cccc(COc2ccc(C3CC(=O)N[S+]3[O-])cc2)c1` (stereo not drawn) [Example 6, 5-[4-[[3-[6-(3-hydroxy-3-methylbutoxy)-2,4-dimethylpyridin-3-yl]phenyl]methoxy]phenyl]-1-oxo-1,2-thiazolidin-3-one], the EC50 was less than 300 nM.

`Cc1cc(-c2cccc(COc3ccc(C4CC(=O)N[S+]4[O-])cc3)c2)c(C)cc1OCCC(C)(C)O` (stereo not drawn) [Example 7, 5-[4-[[3-[4-(3-hydroxy-3-methylbutoxy)-2,5-dimethylphenyl]phenyl]methoxy]phenyl]-1-oxo-1,2-thiazolidin-3-one] showed an EC50 of less than 300 nM.

For `Cc1cc(OCCCO)cc(C)c1-c1cccc(COc2ccc(C3CC(=O)N[S+]3[O-])cc2)c1` (stereo not drawn) [Example 8, 5-[4-[[3-[4-(3-hydroxypropoxy)-2,6-dimethylphenyl]phenyl]methoxy]phenyl]-1-oxo-1,2-thiazolidin-3-one], the EC50 was less than 300 nM.

Take `Cc1cc(OC[C@H](O)CO)cc(C)c1-c1cccc(COc2ccc(C3CC(=O)N[S+]3[O-])cc2)c1` (stereo partly drawn) [Example 9, 5-[4-[[3-[4-[(2R)-2,3-dihydroxypropoxy]-2,6-dimethylphenyl]phenyl]methoxy]phenyl]-1-oxo-1,2-thiazolidin-3-one]: the EC50 was less than 300 nM.

As to `Cc1cc(OCC(CO)CO)cc(C)c1-c1cccc(COc2ccc(C3CC(=O)N[S+]3[O-])cc2)c1` (stereo not drawn) [Example 10, 5-[4-[[3-[4-[3-hydroxy-2-(hydroxymethyl)propoxy]-2,6-dimethylphenyl]phenyl]methoxy]phenyl]-1-oxo-1,2-thiazolidin-3-one], the 50% effective concentration (EC50) was less than 300 nM.

For `Cc1cc(OCCCN)cc(C)c1-c1cccc(COc2ccc(C3CC(=O)N[S+]3[O-])cc2)c1` (stereo not drawn) [Example 11, 5-[4-[[3-[4-(3-aminopropoxy)-2,6-dimethylphenyl]phenyl]methoxy]phenyl]-1-oxo-1,2-thiazolidin-3-one trifluoroacetic acid salt], the EC50 is less than 300 nM.

Take `Cc1cc(OCCCS(C)(=O)=O)cc(C)c1-c1cccc(COc2ccc(C3CC(=O)N[S+]3[O-])cc2)c1` (stereo not drawn) [Example 13, 5-[4-[[3-[2,6-dimethyl 4-(3-methylsulfonylpropoxy)phenyl]phenyl]methoxy]phenyl]-1-oxo-1,2-thiazolidin-3-one]: the EC50 is less than 300 nM.

For the molecule `Cc1cccc(C)c1-c1cccc(COc2ccc(N3CC(=O)NS3(=O)=O)cc2)c1` [Example 14, 5-[4-[[3-(2,6-dimethylphenyl)phenyl]methoxy]phenyl]-1,1-dioxo-1,2,5-thiadiazolidin-3-one], the EC50 is less than 300 nM.

As for `Cc1cc(OCCCS(C)(=O)=O)cc(C)c1-c1cccc(COc2ccc(N3CC(=O)NS3(=O)=O)cc2)c1` [Example 15, 5-[4-[[3-[2,6-dimethyl-4-(3-methylsulfonylpropoxy)phenyl]phenyl]methoxy]phenyl]-1,1-dioxo-1,2,5-thiadiazolidin-3-one], the EC50 is 300 to 3000 nM.

Turning to `Cc1cccc(C)c1-c1cccc(COc2ccc(N3CC(=O)NS3(=O)=O)c(Cl)c2)c1` [Example 16, 5-[2-chloro-4-[[3-(2,6-dimethylphenyl)phenyl]methoxy]phenyl]-1,1-dioxo-1,2,5-thiadiazolidin-3-one], the 50% effective concentration (EC50) was less than 300 nM.

The molecule `Cc1cc(OCc2cccc(-c3c(C)cccc3C)c2)ccc1N1CC(=O)NS1(=O)=O` [Example 17, 5-[4-[[3-(2,6-dimethylphenyl)phenyl]methoxy]-2-methylphenyl]-1,1-dioxo-1,2,5-thiadiazolidin-3-one] came in with an EC50 of less than 300 nM.

In turn, `Cc1cccc(C)c1-c1cccc(COc2ccc(N3C(C)C(=O)NS3(=O)=O)cc2)c1` (stereo not drawn) [Example 18, 5-[4-[[3-(2,6-dimethylphenyl)phenyl]methoxy]phenyl]-4-methyl-1,1-dioxo-1,2,5-thiadiazolidin-3-one] came in with an EC50 of 300 to 3000 nM.
